From US9567339B2, “Primary carboxamides as BTK inhibitors” (AbbVie Inc., priority 2013, dated 2017)

What follows are compounds tested against BTK, recombinant human catalytic domain (aa 393-659) (Homo sapiens (Human), UniProt Q06187) (assay: In vitro BTK kinase activity measured by time-resolved fluorescence resonance energy transfer (trFRET)). Settings: trFRET, 0.001 mM ATP, biotin-TYR1 peptide substrate; read-out: Btk IC50.
Type: biochemical

Chain of BTK, recombinant human catalytic domain (aa 393-659) (Q06187 393-659): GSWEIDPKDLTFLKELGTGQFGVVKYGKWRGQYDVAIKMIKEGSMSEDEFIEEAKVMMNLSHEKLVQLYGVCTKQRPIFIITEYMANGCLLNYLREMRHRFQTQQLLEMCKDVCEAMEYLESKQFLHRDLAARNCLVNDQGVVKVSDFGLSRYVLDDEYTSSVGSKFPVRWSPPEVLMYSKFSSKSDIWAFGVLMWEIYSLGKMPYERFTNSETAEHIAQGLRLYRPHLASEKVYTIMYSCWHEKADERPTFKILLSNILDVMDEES

IC50 [nM]	Structure (SMILES)
< 100	Cc1c(N)cccc1-c1ccc(C(N)=O)c2[nH]c(C3=CCN(S(C)(=O)=O)CC3)cc12 [A.4.5, 4-(3-amino-2-methylphenyl)-2-(1-(methylsulfonyl)-1,2,3,6-tetrahydropyridin-4-yl)-1H-indole-7-carboxamide]
< 100	Cc1c(NCCO)cccc1-c1ccc(C(N)=O)c2[nH]c(C3=CCN(S(C)(=O)=O)CC3)cc12 [A.4.13]
< 100	C=CC(=O)Nc1cccc(-c2ccc(C(N)=O)c3[nH]c(C4=CCN(S(C)(=O)=O)CC4)cc23)c1 [A.4.15]
< 100	Cc1c(NC(=O)c2ccc(C3CC3)cc2)cccc1-c1ccc(C(N)=O)c2[nH]c(C3=CCN(S(C)(=O)=O)CC3)cc12 [A.4.16]
< 100	Cc1c(NC(=O)c2nccs2)cccc1-c1ccc(C(N)=O)c2[nH]c(C3=CCN(S(C)(=O)=O)CC3)cc12 [A.4.17]
< 100	Cc1c(-c2ccc(C(N)=O)c3[nH]c(C4=CCN(S(C)(=O)=O)CC4)cc23)cccc1-n1cnc2ccccc2c1=O [A.4.18]
1000 to 10000	NC(=O)c1ccc(-c2ccccc2N)c2cc[nH]c12 [A.5.1, 4-(2-aminophenyl)-1H-indole-7-carboxamide]
100 to 1000	C=CC(=O)Nc1cccc(-c2ccc(C(N)=O)c3[nH]ccc23)c1 [A.5.2]
1000 to 10000	NC(=O)c1ccc(-c2ccnc(N)c2)c2cc[nH]c12 [A.5.3, 4-(2-aminopyridin-4-yl)-1H-indole-7-carboxamide]
1000 to 10000	NC(=O)c1ccc(-c2cncc(N)c2)c2cc[nH]c12 [A.5.4, 4-(5-aminopyridin-3-yl)-1H-indole-7-carboxamide]
1000 to 10000	N#CCNS(=O)(=O)c1cccc(-c2ccc(C(N)=O)c3[nH]ccc23)c1 [A.6.1]
1000 to 10000	CNc1cccc(-c2ccc(C(N)=O)c3[nH]ccc23)c1 [A.6.2]
< 100	Cc1c(-c2ccc(C(N)=O)c3[nH]c(-c4cccnc4)cc23)cccc1N1Cc2ccccc2C1=O [A.7.4]
< 100	Cc1ccc2c(c1)C(=O)N(c1cccc(-c3ccc(C(N)=O)c4[nH]c(-c5cccnc5)cc34)c1C)C2 [A.7.5]
1000 to 10000	Cc1ccc(NC(=O)c2nccs2)cc1-c1ccc(C(N)=O)c2[nH]c(-c3cccnc3)cc12 [A.7.7]
100 to 1000	Cc1ccc(-c2cc3c(-c4cccnc4)ccc(C(N)=O)c3[nH]2)cc1 [A.8.3]
100 to 1000	Cc1ccc(-c2cc3c(-c4ccncc4)ccc(C(N)=O)c3[nH]2)cc1 [A.8.4]
100 to 1000	Cc1ccc(-c2cc3c(-c4cnn(C)c4)ccc(C(N)=O)c3[nH]2)cc1 [A.8.7]
100 to 1000	NC(=O)c1ccc(-c2cncnc2)c2cc(-c3ccc(F)cc3)[nH]c12 [A.9.1]

IC50 [nM]	Structure (SMILES)
< 100	NC(=O)c1ccc(-c2cccnc2)c2cc(-c3ccc(F)cc3)[nH]c12 [A.9.2]
100 to 1000	NC(=O)c1ccc(-c2ccn[nH]2)c2cc(-c3ccc(F)cc3)[nH]c12 [A.9.5]
1000 to 10000	Cc1c(NC(=O)c2cc3c(s2)CCCC3)cccc1-c1ccc(C(N)=O)c2[nH]c(-c3ccc(F)cc3)cc12 [A.9.7]
< 100	Cc1c(-c2ccc(C(N)=O)c3[nH]c(-c4cnn(C)c4)cc23)cccc1-n1cnc2ccccc2c1=O [A.10.1]
< 100	Cc1c(-c2ccc(C(N)=O)c3[nH]c(-c4cnn(C)c4)cc23)cccc1-n1cnc2ccc(F)cc2c1=O [A.10.2]
< 100	Cc1c(-c2ccc(C(N)=O)c3[nH]c(-c4cnn(C)c4)cc23)cccc1N(C(=O)c1nccs1)C1COC1 [A.10.3, N-(3-(7-carbamoyl-2-(1-methyl-1H-pyrazol-4-yl)-1H-indol-4-yl)-2-methylphenyl)-N-(oxetan-3-yl)thiazole-2-carboxamide]
< 100	Cc1c(NC(=O)c2cc3c(s2)CCCC3)cccc1-c1ccc(C(N)=O)c2[nH]c(-c3cnn(C)c3)cc12 [A.10.5]
< 100	Cc1c(-c2ccc(C(N)=O)c3[nH]c(C4=CCOCC4)cc23)cccc1-n1cnc2ccccc2c1=O [A.11.1]
< 100	Cc1c(-c2ccc(C(N)=O)c3[nH]c(C4=CCOCC4)cc23)cccc1-n1cnc2ccc(F)cc2c1=O [A.11.2]
100 to 1000	Cc1c(-c2ccc(C(N)=O)c3[nH]c(-c4cncnc4)cc23)cccc1-n1cnc2ccccc2c1=O [A.13.1]
100 to 1000	Cc1c(NC(=O)c2ccc(C(F)F)cc2)cccc1-c1ccc(C(N)=O)c2[nH]c(-c3cncnc3)cc12 [A.13.3]
< 100	Cc1c(-c2ccc(C(N)=O)c3[nH]c(-c4cnn(CC(C)(C)O)c4)cc23)cccc1-n1cnc2ccc(F)cc2c1=O [A.14.1]
< 100	Cn1cc(-c2cc3c(-c4cccc(-n5ccc6cc(C7CC7)cc(F)c6c5=O)c4CO)ccc(C(N)=O)c3[nH]2)cn1 [A.15.1]
< 100	COC(=O)/C=C/C(=O)Nc1cccc(-c2ccc(C(N)=O)c3[nH]ccc23)c1 [D.1, (E)-Methyl 4-((3-(7-carbamoyl-1H-indol-4-yl)phenyl)amino)-4-oxobut-2-enoate]
100 to 1000	Cc1c(NC(=O)c2nccs2)cccc1-c1ccc(C(N)=O)c2[nH]c(-c3ccccc3CNC(=O)CC#N)cc12 [D.1.3]
100 to 1000	Cc1c(NC(=O)c2nccs2)cccc1-c1ccc(C(N)=O)c2[nH]c(-c3ccccc3CNC(=O)CCN(C)C)cc12 [D.1.4]
1000 to 10000	Cc1c(NC(=O)c2nccs2)cccc1-c1ccc(C(N)=O)c2[nH]c(-c3ccccc3CNC(=O)CCN3CCCCC3)cc12 [D.1.5]
1000 to 10000	Cc1c(NC(=O)c2nccs2)cccc1-c1ccc(C(N)=O)c2[nH]c(-c3ccccc3CNC(=O)COc3ccccc3)cc12 [D.1.6]
1000 to 10000	C=C(C)C(=O)NCc1ccccc1-c1cc2c(-c3cccc(NC(=O)c4nccs4)c3C)ccc(C(N)=O)c2[nH]1 [D.1.10]

The remaining lines, values behind:

Structure (SMILES)	IC50 [nM]
Cc1c(-c2ccc(C(N)=O)c3[nH]c(C4=CCN(S(C)(=O)=O)CC4)cc23)cccc1N1CCc2ccccc2C1=O [A.4.6]	< 100
CS(=O)(=O)N1CC=C(c2cc3c(-c4ccccc4)ccc(C(N)=O)c3[nH]2)CC1 [A.4.7]	< 100
CS(=O)(=O)N1CC=C(c2cc3c(-c4cccc(Nc5ccnc(C#N)n5)c4)ccc(C(N)=O)c3[nH]2)CC1 [A.4.8]	< 100
Cc1c(NC(=O)c2ccc(C(F)F)cc2)cccc1-c1ccc(C(N)=O)c2[nH]c(C3=CCN(S(C)(=O)=O)CC3)cc12 [A.4.10]	< 100
Cc1c(NC2COC2)cccc1-c1ccc(C(N)=O)c2[nH]c(C3=CCN(S(C)(=O)=O)CC3)cc12 [A.4.11]	< 100
Cc1c(-c2ccc(C(N)=O)c3[nH]c(C4=CCN(S(C)(=O)=O)CC4)cc23)cccc1N(C(=O)c1ccc(C(F)F)cc1)C1COC1 [A.4.12]	< 100
Cc1c(-c2ccc(C(N)=O)c3[nH]c(C4=CCN(S(C)(=O)=O)CC4)cc23)cccc1N(CCO)C(=O)c1ccc(C(F)F)cc1 [A.4.14]	< 100
Cc1c(-c2ccc(C(N)=O)c3[nH]c(C4=CCN(S(C)(=O)=O)CC4)cc23)cccc1-n1cnc2ccc(F)cc2c1=O [A.4.19]	< 100
Cc1c(NC(=O)c2ccc(C(C)(C)C)cc2)cccc1-c1ccc(C(N)=O)c2[nH]ccc12 [A.5.6]	1000 to 10000
Cc1c(NC(=O)c2ccc(C(C)(C)C)cc2)cccc1-c1ccc(C(N)=O)c2[nH]c(-c3cccnc3)cc12 [A.7.1]	< 100
Cc1c(-c2ccc(C(N)=O)c3[nH]c(-c4cccnc4)cc23)cccc1-n1cnc2ccccc2c1=O [A.7.2]	< 100
Cc1c(NC(=O)c2cc3c(s2)CCCC3)cccc1-c1ccc(C(N)=O)c2[nH]c(-c3cccnc3)cc12 [A.7.3]	< 100
Cc1c(-c2ccc(C(N)=O)c3[nH]c(-c4cccnc4)cc23)cccc1N1Cc2ccc(F)cc2C1=O [A.7.6]	< 100
Cc1c(NC(=O)c2nccs2)cccc1-c1ccc(C(N)=O)c2[nH]c(-c3cccnc3)cc12 [A.7.8]	< 100
Cc1ccc(-c2cc3c(-c4ccn[nH]4)ccc(C(N)=O)c3[nH]2)cc1 [A.8.1]	100 to 1000
Cc1ccc(-c2cc3c(-c4c(C)noc4C)ccc(C(N)=O)c3[nH]2)cc1 [A.8.2]	100 to 1000
CC(=O)c1ccc(-c2ccc(C(N)=O)c3[nH]c(-c4ccc(C)cc4)cc23)s1 [A.8.5]	100 to 1000

Structure (SMILES)	IC50 [nM]
Cc1ccc(-c2cc3c(-c4ccsc4)ccc(C(N)=O)c3[nH]2)cc1 [A.8.6]	100 to 1000
Cc1ccc(-c2cc3c(-c4ccn[nH]4)ccc(C(N)=O)c3[nH]2)cc1 [A.8.8]	100 to 1000
Cc1ccc(-c2cc3c(-c4cccs4)ccc(C(N)=O)c3[nH]2)cc1 [A.8.9]	100 to 1000
Cc1ccc(-c2cc3c(-c4ccsc4)ccc(C(N)=O)c3[nH]2)cc1 [A.8.10]	100 to 1000
Cc1noc(C)c1-c1ccc(C(N)=O)c2[nH]c(-c3ccc(F)cc3)cc12 [A.9.3]	100 to 1000
NC(=O)c1ccc(-c2ccncc2)c2cc(-c3ccc(F)cc3)[nH]c12 [A.9.4]	100 to 1000
Cc1c(-c2ccc(C(N)=O)c3[nH]c(-c4ccc(F)cc4)cc23)cccc1N1Cc2ccc(F)cc2C1=O [A.9.6]	< 100
Cc1c(-c2ccc(C(N)=O)c3[nH]c(-c4ccc(F)cc4)cc23)cccc1-n1cnc2ccccc2c1=O [A.12.1]	< 100
Cc1c(-c2ccc(C(N)=O)c3[nH]c(-c4cncnc4)cc23)cccc1-n1cnc2ccc(F)cc2c1=O [A.13.2]	100 to 1000
Cc1c(NC(=O)c2ccc(C3CC3)cc2)cccc1-c1ccc(C(N)=O)c2[nH]c(-c3cncnc3)cc12 [A.13.4]	100 to 1000
NC(=O)c1ccc(-c2cccc(NC(=O)/C=C/C(=O)O)c2)c2cc[nH]c12 [C.1, (E)-4-((3-(7-Carbamoyl-1H-indol-4-yl)phenyl)amino)-4-oxobut-2-enoic acid]	1000 to 10000
CC#CC(=O)NCc1ccccc1-c1cc2c(-c3cccc(NC(=O)c4nccs4)c3C)ccc(C(N)=O)c2[nH]1 [D.1.1]	1000 to 10000
C=CC(=O)NCc1ccccc1-c1cc2c(-c3cccc(NC(=O)c4nccs4)c3C)ccc(C(N)=O)c2[nH]1 [D.1.2]	1000 to 10000
Cc1c(NC(=O)c2nccs2)cccc1-c1ccc(C(N)=O)c2[nH]c(-c3ccccc3CNC(=O)COc3ccc(F)cc3)cc12 [D.1.7]	1000 to 10000
CCCC(=O)NCc1ccccc1-c1cc2c(-c3cccc(NC(=O)c4nccs4)c3C)ccc(C(N)=O)c2[nH]1 [D.1.8]	1000 to 10000
C/C=C/C(=O)NCc1ccccc1-c1cc2c(-c3cccc(NC(=O)c4nccs4)c3C)ccc(C(N)=O)c2[nH]1 [D.1.9]	1000 to 10000
